What all share (assay): Off-chip Mobility Shift Assay, kinase inhibition
Format in all cases: biochemical

One experiment has as its target T1, ITK (Homo sapiens, UniProt Q08881).
T1 construct: purchased Carna Biosciences, Inc
The conditions noted are these: at 1 nM; recombinant ITK.

The target in another experiment is T2, ABL(T315I) (Homo sapiens, UniProt P00519, T315I).
T2 construct: purchased Carna Biosciences, Inc
The settings on record: at 1 nM; recombinant ABL(T315I).

The target in the next experiment is T3, LYNb (Homo sapiens, UniProt P07948).
T3 construct: purchased Carna Biosciences, Inc
T3 sequence (P07948 1-491 isoform P07948-2): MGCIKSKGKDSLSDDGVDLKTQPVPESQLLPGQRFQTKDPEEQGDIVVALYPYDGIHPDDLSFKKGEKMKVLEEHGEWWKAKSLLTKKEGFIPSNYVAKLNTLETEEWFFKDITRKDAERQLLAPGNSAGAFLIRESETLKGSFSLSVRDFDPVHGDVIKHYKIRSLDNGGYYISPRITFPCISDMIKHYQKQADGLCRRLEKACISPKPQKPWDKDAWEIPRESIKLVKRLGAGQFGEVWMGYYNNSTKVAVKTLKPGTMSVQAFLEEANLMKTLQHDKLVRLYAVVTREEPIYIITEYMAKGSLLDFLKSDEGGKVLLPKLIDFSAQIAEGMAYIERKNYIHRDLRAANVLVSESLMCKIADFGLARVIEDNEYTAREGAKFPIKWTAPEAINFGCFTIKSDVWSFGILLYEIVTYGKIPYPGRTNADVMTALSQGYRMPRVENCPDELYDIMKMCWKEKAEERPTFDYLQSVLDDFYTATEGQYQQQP
The settings on record: at 1 nM; recombinant LYNb.

The next experiment has as its target T4, MET (Homo sapiens, UniProt P08581).
T4 construct: purchased Carna Biosciences, Inc
The settings on record: at 10 nM; recombinant MET.

The target in another experiment is T5, skMLCK (Homo sapiens, UniProt Q9H1R3).
T5 construct: purchased Carna Biosciences, Inc
The conditions noted are these: at 10 nM; recombinant skMLCK.

A further experiment has as its target T6, KIT(V654A) (Homo sapiens, UniProt P10721, V654A).
T6 construct: purchased Carna Biosciences, Inc
The conditions noted are these: at 10 nM; recombinant KIT(V654A).

A further experiment addresses T7, PDGFRα(T674I) (Homo sapiens, UniProt P16234, T674I).
T7 construct: purchased Carna Biosciences, Inc
The conditions noted are these: at 10 nM; recombinant PDGFRα(T674I).

A further experiment concerns the target T8, JAK3 (Homo sapiens, UniProt P52333).
T8 construct: purchased Carna Biosciences, Inc
The conditions noted are these: at 10 nM; recombinant JAK3.

In a further experiment the target is T9, EGFR(L858R) (Homo sapiens, UniProt P00533, L858R).
T9 construct: purchased Carna Biosciences, Inc
The settings on record: at 10 nM; recombinant EGFR(L858R).

A further experiment has as its target T10, PDGFRα(V561D) (Homo sapiens, UniProt P16234, V561D).
T10 construct: purchased Carna Biosciences, Inc
The conditions noted are these: at 10 nM; recombinant PDGFRα(V561D).

The target in another experiment is T11, FGFR1 (Homo sapiens, UniProt P11362).
T11 construct: purchased Carna Biosciences, Inc
The settings on record: at 10 nM; recombinant FGFR1.

A further experiment has as its target T12, RET(Y791F) (Homo sapiens, UniProt P07949, Y791F).
T12 construct: purchased Carna Biosciences, Inc
The conditions noted are these: at 10 nM; recombinant RET(Y791F).

A further experiment has as its target T13, KIT(D816Y) (Homo sapiens, UniProt P10721, D816Y).
T13 construct: purchased Carna Biosciences, Inc
The conditions noted are these: at 10 nM; recombinant KIT(D816Y).

In the next experiment the target is T14, FLT1 (Homo sapiens, UniProt P17948).
T14 construct: purchased Carna Biosciences, Inc
T14 sequence (P17948 27-1338): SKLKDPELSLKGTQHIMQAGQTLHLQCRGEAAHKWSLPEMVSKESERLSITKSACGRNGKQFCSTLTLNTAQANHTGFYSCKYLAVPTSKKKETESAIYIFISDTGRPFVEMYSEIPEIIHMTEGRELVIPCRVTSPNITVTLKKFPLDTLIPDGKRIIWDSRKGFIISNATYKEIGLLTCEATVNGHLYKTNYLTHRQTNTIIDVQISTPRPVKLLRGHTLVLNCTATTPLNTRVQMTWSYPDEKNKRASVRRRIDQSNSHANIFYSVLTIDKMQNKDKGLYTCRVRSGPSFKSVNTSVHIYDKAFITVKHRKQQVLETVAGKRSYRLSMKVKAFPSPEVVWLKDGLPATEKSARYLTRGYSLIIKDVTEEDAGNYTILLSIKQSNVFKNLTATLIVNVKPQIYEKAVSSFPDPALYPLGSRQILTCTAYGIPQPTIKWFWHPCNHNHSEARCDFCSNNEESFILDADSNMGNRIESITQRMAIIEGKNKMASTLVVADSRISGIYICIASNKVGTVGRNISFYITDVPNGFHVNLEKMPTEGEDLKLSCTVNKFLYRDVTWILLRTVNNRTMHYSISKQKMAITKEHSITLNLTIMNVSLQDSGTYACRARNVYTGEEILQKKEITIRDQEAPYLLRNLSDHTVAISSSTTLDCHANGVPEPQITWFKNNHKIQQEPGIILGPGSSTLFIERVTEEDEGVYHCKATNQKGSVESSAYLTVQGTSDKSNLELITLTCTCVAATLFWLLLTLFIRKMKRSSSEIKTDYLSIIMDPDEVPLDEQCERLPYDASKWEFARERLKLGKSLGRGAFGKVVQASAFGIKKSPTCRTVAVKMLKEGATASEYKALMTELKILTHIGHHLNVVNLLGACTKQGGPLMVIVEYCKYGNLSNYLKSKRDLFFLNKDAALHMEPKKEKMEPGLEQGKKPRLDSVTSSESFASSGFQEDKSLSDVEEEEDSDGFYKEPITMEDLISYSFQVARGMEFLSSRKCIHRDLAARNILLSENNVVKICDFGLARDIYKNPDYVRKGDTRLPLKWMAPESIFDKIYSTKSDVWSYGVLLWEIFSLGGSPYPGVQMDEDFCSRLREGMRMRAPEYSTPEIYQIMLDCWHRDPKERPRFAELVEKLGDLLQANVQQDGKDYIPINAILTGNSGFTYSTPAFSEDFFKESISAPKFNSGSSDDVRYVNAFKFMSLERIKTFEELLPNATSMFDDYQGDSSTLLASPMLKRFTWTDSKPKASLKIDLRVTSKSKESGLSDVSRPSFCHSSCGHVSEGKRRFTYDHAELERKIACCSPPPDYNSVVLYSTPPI
The settings on record: at 10 nM; recombinant FLT1.

For the next experiment, the target named is T15, RET (Homo sapiens, UniProt P07949).
T15 construct: purchased Carna Biosciences, Inc
The conditions noted are these: at 10 nM; recombinant RET.

The target of a further experiment is T16, EGFR(T790M) (Homo sapiens, UniProt P00533, T790M).
T16 construct: purchased Carna Biosciences, Inc
The settings on record: at 10 nM; recombinant EGFR(T790M).

The target of the next experiment is T17, JAK2 (Homo sapiens, UniProt O60674).
T17 construct: purchased Carna Biosciences, Inc
The conditions noted are these: at 10 nM; recombinant JAK2.

The next experiment addresses T18, MNK1 (Homo sapiens, UniProt Q9BUB5).
T18 construct: purchased Carna Biosciences, Inc
The conditions noted are these: at 10 nM; recombinant MNK1.

In another experiment the target is T19, MST1 (Homo sapiens, UniProt Q13043).
T19 construct: purchased Carna Biosciences, Inc
T19 sequence (Q13043 whole entry): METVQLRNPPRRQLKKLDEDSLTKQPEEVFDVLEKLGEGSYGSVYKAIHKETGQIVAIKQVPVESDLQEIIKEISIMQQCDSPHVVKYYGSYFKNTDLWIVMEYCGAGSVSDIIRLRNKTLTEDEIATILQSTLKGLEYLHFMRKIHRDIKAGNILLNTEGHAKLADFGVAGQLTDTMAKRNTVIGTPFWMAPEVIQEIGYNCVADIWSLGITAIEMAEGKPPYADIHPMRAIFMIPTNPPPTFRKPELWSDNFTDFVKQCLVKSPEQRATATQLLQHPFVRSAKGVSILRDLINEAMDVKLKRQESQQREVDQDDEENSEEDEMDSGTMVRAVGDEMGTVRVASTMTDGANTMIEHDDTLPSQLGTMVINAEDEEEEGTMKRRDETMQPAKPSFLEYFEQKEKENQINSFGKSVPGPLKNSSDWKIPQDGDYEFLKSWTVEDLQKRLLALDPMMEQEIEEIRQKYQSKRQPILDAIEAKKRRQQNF
The conditions noted are these: at 10 nM; recombinant MST1.

The target of another experiment is T20, KIT(D816V) (Homo sapiens, UniProt P10721, D816V).
T20 construct: purchased Carna Biosciences, Inc
The conditions noted are these: at 10 nM; recombinant KIT(D816V).

Another experiment deals with T21, AurA (Homo sapiens, UniProt O14965).
T21 construct: purchased Carna Biosciences, Inc
The settings on record: at 10 nM; recombinant AurA.

The next experiment has as its target T22, MAP2K2 (Homo sapiens, UniProt P36507).
T22 construct: purchased Carna Biosciences, Inc
The conditions noted are these: at 10 nM; recombinant MAP2K2.

A further experiment deals with T23, CSK (Homo sapiens, UniProt P41240).
T23 construct: purchased Carna Biosciences, Inc
The conditions noted are these: at 10 nM; recombinant CSK.

The next experiment has as its target T24, KDR (Homo sapiens, UniProt P35968).
T24 construct: purchased Carna Biosciences, Inc
The conditions noted are these: at 10 nM; recombinant KDR.

The target of a further experiment is T25, EGFR(L861Q) (Homo sapiens, UniProt P00533, L861Q).
T25 construct: purchased Carna Biosciences, Inc
T25 sequence (P00533 25-1210 L861Q): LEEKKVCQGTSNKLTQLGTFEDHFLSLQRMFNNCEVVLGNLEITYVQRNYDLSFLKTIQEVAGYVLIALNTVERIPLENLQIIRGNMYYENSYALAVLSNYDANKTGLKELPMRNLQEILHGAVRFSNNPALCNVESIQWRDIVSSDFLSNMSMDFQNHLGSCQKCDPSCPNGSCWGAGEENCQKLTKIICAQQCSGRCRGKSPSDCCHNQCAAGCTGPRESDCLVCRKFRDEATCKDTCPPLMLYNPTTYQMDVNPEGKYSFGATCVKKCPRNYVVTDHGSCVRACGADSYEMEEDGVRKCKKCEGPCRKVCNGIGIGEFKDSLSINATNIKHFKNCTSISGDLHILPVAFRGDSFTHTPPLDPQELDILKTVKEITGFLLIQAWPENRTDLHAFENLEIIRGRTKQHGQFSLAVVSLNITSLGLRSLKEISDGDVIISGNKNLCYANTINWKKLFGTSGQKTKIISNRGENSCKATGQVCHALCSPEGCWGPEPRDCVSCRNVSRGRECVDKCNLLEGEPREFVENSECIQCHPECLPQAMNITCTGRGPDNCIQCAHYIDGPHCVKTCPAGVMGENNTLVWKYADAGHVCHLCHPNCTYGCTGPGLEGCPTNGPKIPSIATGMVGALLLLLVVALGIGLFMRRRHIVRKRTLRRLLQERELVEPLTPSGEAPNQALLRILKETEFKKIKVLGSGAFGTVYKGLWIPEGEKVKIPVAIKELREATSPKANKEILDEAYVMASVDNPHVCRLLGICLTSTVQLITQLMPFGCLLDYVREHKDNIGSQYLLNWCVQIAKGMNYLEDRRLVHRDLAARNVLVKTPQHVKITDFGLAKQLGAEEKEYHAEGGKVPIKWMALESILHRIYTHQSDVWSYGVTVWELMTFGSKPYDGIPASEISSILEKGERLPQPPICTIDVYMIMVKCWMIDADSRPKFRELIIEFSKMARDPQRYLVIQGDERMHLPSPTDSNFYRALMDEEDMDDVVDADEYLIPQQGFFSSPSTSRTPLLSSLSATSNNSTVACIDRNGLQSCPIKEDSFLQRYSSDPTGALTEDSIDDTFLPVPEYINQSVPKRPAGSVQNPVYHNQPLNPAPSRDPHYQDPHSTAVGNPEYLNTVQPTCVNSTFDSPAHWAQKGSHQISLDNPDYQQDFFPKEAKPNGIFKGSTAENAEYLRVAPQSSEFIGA
The conditions noted are these: at 10 nM; recombinant EGFR(L861Q).

The target in the next experiment is T26, KIT(T670I) (Homo sapiens, UniProt P10721, T670I).
T26 construct: purchased Carna Biosciences, Inc
The settings on record: at 10 nM; recombinant KIT(T670I).

Another experiment has as its target T27, EGFR(d746-750) (Homo sapiens, UniProt P00533, DEL746-750).
T27 construct: purchased Carna Biosciences, Inc
The settings on record: at 10 nM; recombinant EGFR(d746-750).

In a further experiment the target is T28, KIT(D816E) (Homo sapiens, UniProt P10721, D816E).
T28 construct: purchased Carna Biosciences, Inc
T28 sequence (P10721 26-976 D816E): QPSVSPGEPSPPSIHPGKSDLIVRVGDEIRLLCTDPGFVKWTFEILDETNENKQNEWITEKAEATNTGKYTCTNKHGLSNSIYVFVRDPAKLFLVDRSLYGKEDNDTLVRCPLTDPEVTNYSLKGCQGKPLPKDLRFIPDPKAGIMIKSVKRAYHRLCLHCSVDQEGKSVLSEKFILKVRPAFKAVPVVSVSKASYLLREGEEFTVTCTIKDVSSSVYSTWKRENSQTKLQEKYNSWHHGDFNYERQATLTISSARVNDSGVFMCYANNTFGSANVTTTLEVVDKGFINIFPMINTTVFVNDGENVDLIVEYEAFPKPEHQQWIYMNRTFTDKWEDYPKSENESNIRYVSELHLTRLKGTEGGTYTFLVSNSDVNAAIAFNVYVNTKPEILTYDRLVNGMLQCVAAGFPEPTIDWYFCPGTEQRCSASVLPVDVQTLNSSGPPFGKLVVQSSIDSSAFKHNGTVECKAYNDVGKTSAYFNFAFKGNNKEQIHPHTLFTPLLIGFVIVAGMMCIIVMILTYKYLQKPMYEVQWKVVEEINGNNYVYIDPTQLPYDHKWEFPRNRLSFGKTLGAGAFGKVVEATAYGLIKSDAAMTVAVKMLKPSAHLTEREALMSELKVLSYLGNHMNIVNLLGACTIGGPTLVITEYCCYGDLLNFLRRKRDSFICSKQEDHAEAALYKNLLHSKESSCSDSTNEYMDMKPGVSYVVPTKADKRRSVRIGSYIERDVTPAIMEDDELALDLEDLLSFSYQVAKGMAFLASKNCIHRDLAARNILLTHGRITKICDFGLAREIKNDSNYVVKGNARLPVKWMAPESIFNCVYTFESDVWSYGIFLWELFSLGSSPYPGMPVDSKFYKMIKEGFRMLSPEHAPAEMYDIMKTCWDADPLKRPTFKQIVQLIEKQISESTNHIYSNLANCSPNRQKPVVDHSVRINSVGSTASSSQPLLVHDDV
The conditions noted are these: at 10 nM; recombinant KIT(D816E).

Another experiment has as its target T29, WNK3 (Homo sapiens, UniProt Q9BYP7).
T29 construct: purchased Carna Biosciences, Inc
The conditions noted are these: at 10 nM; recombinant WNK3.

A further experiment has as its target T30, BRAF(V600E) (Homo sapiens, UniProt P15056, V600E).
T30 construct: purchased Carna Biosciences, Inc
The settings on record: at 10 nM; recombinant BRAF(V600E).

For the next experiment, the target named is T31, DDR1 (Homo sapiens, UniProt Q08345).
T31 construct: purchased Carna Biosciences, Inc
The settings on record: at 10 nM; recombinant DDR1.

For another experiment, the target named is T32, RET(G691 S) (Homo sapiens, UniProt P07949, G691S).
T32 construct: purchased Carna Biosciences, Inc
The conditions noted are these: at 10 nM; recombinant RET(G691 S).

Where only a bound is given, the exact number is not on record here.

T1 sequence (Q08881 whole entry): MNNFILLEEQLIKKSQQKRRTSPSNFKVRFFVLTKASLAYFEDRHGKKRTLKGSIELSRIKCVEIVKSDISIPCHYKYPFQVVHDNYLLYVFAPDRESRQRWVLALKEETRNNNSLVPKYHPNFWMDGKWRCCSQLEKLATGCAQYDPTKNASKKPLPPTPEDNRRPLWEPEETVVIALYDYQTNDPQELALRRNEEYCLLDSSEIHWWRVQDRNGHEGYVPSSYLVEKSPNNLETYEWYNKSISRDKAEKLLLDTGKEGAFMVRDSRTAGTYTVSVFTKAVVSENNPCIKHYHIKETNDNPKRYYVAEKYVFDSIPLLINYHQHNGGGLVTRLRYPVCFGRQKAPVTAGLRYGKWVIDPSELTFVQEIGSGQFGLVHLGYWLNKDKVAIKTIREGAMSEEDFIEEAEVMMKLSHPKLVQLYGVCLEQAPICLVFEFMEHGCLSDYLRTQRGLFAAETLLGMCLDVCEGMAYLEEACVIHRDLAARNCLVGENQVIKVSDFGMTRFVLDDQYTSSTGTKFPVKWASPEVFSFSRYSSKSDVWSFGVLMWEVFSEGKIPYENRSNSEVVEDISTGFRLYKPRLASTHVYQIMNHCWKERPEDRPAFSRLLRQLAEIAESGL
T6 sequence (P10721 26-976 V654A): as the sequence (P10721 26-976 D816E) above, with V629A, E791D counted along it

What is called inhibition is the percentage by which the read-out fell short of the control. On to `[2H]c1cc(C)c(NC(=O)c2cnc(Nc3cc(N4CCC(O)CC4)nc(C)n3)s2)c(Cl)c1` [Compound II, N-(2-chloro-4-deuterio-6-methyl-phenyl)-2-[[6-(4-hydroxy-1-piperidyl)-2-methyl-pyrimidin-4-yl]amino]thiazole-5-carboxamide], for which the inhibition at 0.001 µM was under 50% at ITK, under 50% on ABL(T315I) and over 50% on LYNb.

Regarding `[2H]c1cc(C)c(NC(=O)c2cnc(Nc3cc(N4CCCCC4)nc(C)n3)s2)c(Cl)c1` [Compound I, N-(2-chloro-4-deuterio-6-methyl-phenyl)-2-[[2-methyl-6-(1-piperidyl)pyrimidin-4-yl]amino]thiazole-5-carboxamide], the inhibition at 0.01 µM at MET, on skMLCK, at KIT(V654A), at PDGFRα(T674I), at JAK3 and at EGFR(L858R) was under 50% each time. Besides, the inhibition at 0.01 µM on PDGFRα(V561D) is under 50%; at FGFR1 it was under 50%; at RET(Y791F) it was under 50%; on KIT(D816Y) it was over 50%; at FLT1, under 50%; at RET it was under 50%. The inhibition at 0.01 µM was under 50% at EGFR(T790M); under 50% at JAK2; under 50% on MNK1; under 50% at MST1; over 50% on KIT(D816V); under 50% on AurA. For the same compound, the inhibition at 0.01 µM on MAP2K2 was under 50%; at CSK, over 50%; at KDR, under 50%; at EGFR(L861Q) it was under 50%; at KIT(T670I), under 50%; on EGFR(d746-750), under 50%. The inhibition at 0.01 µM on KIT(D816E), at WNK3, on BRAF(V600E), on DDR1 and on RET(G691 S) was under 50% throughout.

For the origin of these results see patent US10479786B2, “Protein kinase inhibitors” (Princeton Drug Discovery Inc, priority 2016, dated 2019).
